Test system: C57BL/6 mice
Assay: Size of infarction after 90 minutes MCA occlusion (tetrazolium red)
Type: in vivo, mouse
Conditions: 24 hours after 90 min MCAO; treatment 2.5 hours after MCAO, i.p.; % of contralateral side
Description: Adult (3-5 months old) male C57BL/6 mice were obtained from Charles River Inc. (Saint-Constant, Quebec, Canada). All experimental procedures were approved by the MUHC animal care committee according to the guidelines of the Canadian Council for Animal Care. All animals were allowed free access to water before and after surgery.
Unilateral focal cerebral ischemia was induced by occlusion of the medial cerebral artery (MCA) in the left cerebral hemisphere during 1.5 hours. The MCA occlusions in mice is carried out on ˜30 C57BI/6 mice weighing 20-25 g from an adaptation of a method previously described in rats (Beaulieu, J. M., Kriz, J. and Julien, J. P. ,2002, Brain.Res. 946, 153-161). The animals were anesthetized by administration of ketamine/xylazine mg/kg i.m. To avoid hypothermia, the mouse body temperature was maintained at 37° C. with an infrared heating lamp and warm pad. […]
The area of infarct was estimated in the minimum of animals (5-7 mice) from each experimental group. […] The area of infarct was estimated according to the tetrazolium red staining, calculated in arbitrary units pixels and expressed as a percentage of a total control area, the contralateral non-stroked side of the brain. […] The infarct volume was calculated by summing up the infarct area in multiple slices. […]

Compound: CN(C)c1ccc(O)c2c1C[C@H]1C[C@H]3[C@H](N(C)C)C(O)=C(C(N)=O)C(=O)[C@@]3(O)C(O)=C1C2=O [Minocycline, minocycline]
- % of ischemic area: 38.4%

Source: patent publication US20040235801A1, “Therapy for stroke” (priority 2001, published 2004)
